Values joined by “and” are separate entries in the source; they are usually repeats but may differ in a detail not shown here. Equal entries are not always repeated.
Conditions: Fluid (supercritical or subcritical phases), Buoyancy - hydrostatic balance with magnetic suspension - two sinkers

CCC [propane]
Conditions	mass density
370.82 K, 4316.6 kPa	196.656 kg/m3 and 196.671 kg/m3
370.82 K, 4316.7 kPa	196.709 kg/m3 and 196.642 kg/m3
370.82 K, 4316.8 kPa	196.799 kg/m3
370.83 K, 4238.2 kPa	146.891 kg/m3 and 146.895 kg/m3 and 146.889 kg/m3
370.83 K, 4238.3 kPa	146.899 kg/m3 and 146.89 kg/m3 and 146.892 kg/m3
370.83 K, 4316.8 kPa	196.721 kg/m3 and 196.767 kg/m3 and 196.684 kg/m3
370.83 K, 4323.4 kPa	219.805 kg/m3 [middle of 5 runs]
370.83 K, 4323.5 kPa	219.874 kg/m3 and 219.908 kg/m3 and 219.975 kg/m3
370.83 K, 4330.9 kPa	243.656 kg/m3 [middle of 4 runs]
370.83 K, 4331 kPa	243.626 kg/m3 and 243.674 kg/m3 and 243.648 kg/m3
370.83 K, 4331.1 kPa	243.671 kg/m3
370.85 K, 4240.8 kPa	147.314 kg/m3
370.85 K, 4240.9 kPa	147.324 kg/m3
370.85 K, 4306.4 kPa	177.862 kg/m3
370.85 K, 4306.5 kPa	177.914 kg/m3 and 177.843 kg/m3
370.85 K, 4306.6 kPa	177.931 kg/m3 and 177.874 kg/m3
370.85 K, 4322.8 kPa	208.978 kg/m3 and 208.99 kg/m3
370.85 K, 4322.9 kPa	208.933 kg/m3 and 209.016 kg/m3
370.85 K, 4323 kPa	209.074 kg/m3
370.85 K, 4327.4 kPa	226.65 kg/m3
370.85 K, 4327.5 kPa	226.647 kg/m3
370.85 K, 4353.6 kPa	265.164 kg/m3
370.85 K, 4353.7 kPa	265.36 kg/m3 and 265.182 kg/m3 and 265.138 kg/m3
370.85 K, 4353.8 kPa	265.176 kg/m3 [middle of 4 runs]
370.86 K, 4327.6 kPa	226.701 kg/m3 and 226.673 kg/m3
371.82 K, 4387.3 kPa	196.837 kg/m3 and 196.769 kg/m3
371.82 K, 4416.6 kPa	243.565 kg/m3
371.83 K, 4293.5 kPa	147.926 kg/m3
371.83 K, 4293.6 kPa	147.93 kg/m3 and 147.934 kg/m3 and 147.924 kg/m3
371.83 K, 4293.7 kPa	147.947 kg/m3 and 147.93 kg/m3
371.83 K, 4387.3 kPa	196.784 kg/m3 and 196.769 kg/m3
371.83 K, 4387.4 kPa	196.809 kg/m3 [middle of 4 runs]
371.83 K, 4400.8 kPa	219.56 kg/m3
371.83 K, 4400.9 kPa	219.574 kg/m3 and 219.677 kg/m3 and 219.642 kg/m3
371.83 K, 4401 kPa	219.681 kg/m3 [middle of 4 runs]
371.83 K, 4416.6 kPa	243.624 kg/m3
371.83 K, 4416.7 kPa	243.578 kg/m3 and 243.586 kg/m3
371.83 K, 4416.8 kPa	243.575 kg/m3 and 243.616 kg/m3 and 243.58 kg/m3
371.83 K, 4416.9 kPa	243.605 kg/m3
371.85 K, 4295.8 kPa	148.252 kg/m3
371.85 K, 4295.9 kPa	148.276 kg/m3 and 148.252 kg/m3
371.85 K, 4370.3 kPa	177.981 kg/m3
371.85 K, 4370.4 kPa	178.031 kg/m3 and 177.991 kg/m3 and 178.027 kg/m3
371.85 K, 4370.5 kPa	178.012 kg/m3
371.85 K, 4397.1 kPa	208.855 kg/m3 and 208.907 kg/m3
371.85 K, 4397.2 kPa	208.865 kg/m3 and 208.929 kg/m3 and 208.907 kg/m3
371.85 K, 4407.1 kPa	226.926 kg/m3
371.85 K, 4407.2 kPa	226.521 kg/m3 and 226.511 kg/m3
371.85 K, 4450.2 kPa	265.14 kg/m3
371.85 K, 4450.3 kPa	265.143 kg/m3
371.85 K, 4450.4 kPa	265.125 kg/m3 and 265.134 kg/m3 and 265.131 kg/m3
371.86 K, 4407.3 kPa	226.504 kg/m3 and 226.483 kg/m3
372 K, 4517.4 kPa	281.197 kg/m3
372 K, 4517.6 kPa	281.196 kg/m3 and 281.206 kg/m3 and 281.197 kg/m3
372 K, 4517.7 kPa	281.2 kg/m3 [middle of 4 runs]
375 K, 3980.2 kPa	100.464 kg/m3 and 100.463 kg/m3
375 K, 3980.3 kPa	100.468 kg/m3 and 100.463 kg/m3
375 K, 4455 kPa	148.081 kg/m3 [middle of 5 runs]
375 K, 4455.1 kPa	148.084 kg/m3 and 148.085 kg/m3 and 148.081 kg/m3
375 K, 4456.1 kPa	148.366 kg/m3 and 148.364 kg/m3 and 148.371 kg/m3
375 K, 4456.2 kPa	148.361 kg/m3
375 K, 4568.9 kPa	178.196 kg/m3 [middle of 4 runs]
375 K, 4569 kPa	178.185 kg/m3
375 K, 4609.7 kPa	197.026 kg/m3 and 197.015 kg/m3
375 K, 4609.8 kPa	197.023 kg/m3 [middle of 5 runs]
375 K, 4630.9 kPa	208.979 kg/m3
375 K, 4631 kPa	208.963 kg/m3 and 208.962 kg/m3 and 208.991 kg/m3
375 K, 4631.1 kPa	208.972 kg/m3
375 K, 4648.5 kPa	219.668 kg/m3
375 K, 4648.6 kPa	219.65 kg/m3 [middle of 6 runs]
375 K, 4648.7 kPa	219.656 kg/m3
375 K, 4660.8 kPa	226.495 kg/m3
375 K, 4660.9 kPa	226.503 kg/m3 and 226.483 kg/m3
375 K, 4661 kPa	226.54 kg/m3
375 K, 4694.5 kPa	243.594 kg/m3 and 243.602 kg/m3 and 243.583 kg/m3
375 K, 4694.6 kPa	243.603 kg/m3 [middle of 4 runs]
375 K, 4761.6 kPa	265.09 kg/m3
375 K, 4761.7 kPa	265.094 kg/m3 and 265.087 kg/m3
375 K, 4761.8 kPa	265.087 kg/m3
375 K, 4761.9 kPa	265.101 kg/m3
375 K, 4846.9 kPa	281.14 kg/m3 [middle of 4 runs]
375 K, 4847.1 kPa	281.138 kg/m3 and 281.143 kg/m3
375 K, 5843.8 kPa	337.161 kg/m3
375 K, 5843.9 kPa	337.161 kg/m3
375 K, 5844 kPa	337.161 kg/m3 and 337.159 kg/m3
375 K, 5844.1 kPa	337.162 kg/m3
375 K, 5844.2 kPa	337.16 kg/m3 and 337.158 kg/m3
375.01 K, 4661 kPa	226.502 kg/m3
375.01 K, 4847.1 kPa	281.141 kg/m3 and 281.139 kg/m3
380 K, 320.18 kPa	4.576 kg/m3
380 K, 320.19 kPa	4.576 kg/m3
380 K, 569.88 kPa	8.3091 kg/m3 and 8.3093 kg/m3
380 K, 569.89 kPa	8.3092 kg/m3 and 8.3093 kg/m3
380 K, 954.79 kPa	14.3809 kg/m3
380 K, 954.8 kPa	14.3809 kg/m3
380 K, 954.81 kPa	14.3809 kg/m3
380 K, 1441 kPa	22.71 kg/m3
380 K, 1441.3 kPa	22.7154 kg/m3
380 K, 1442 kPa	22.7271 kg/m3
380 K, 1442.3 kPa	22.733 kg/m3
380 K, 1442.6 kPa	22.7383 kg/m3
380 K, 2208.6 kPa	37.8037 kg/m3 [middle of 4 runs]
380 K, 2208.8 kPa	37.8087 kg/m3
380 K, 3020.8 kPa	57.7697 kg/m3 and 57.7694 kg/m3
380 K, 3020.9 kPa	57.7728 kg/m3
380 K, 3021 kPa	57.7733 kg/m3
380 K, 3021.1 kPa	57.7794 kg/m3
380 K, 3513.2 kPa	73.3301 kg/m3
380 K, 3513.4 kPa	73.3336 kg/m3
380 K, 3513.5 kPa	73.3364 kg/m3
380 K, 3513.6 kPa	73.3391 kg/m3 and 73.3404 kg/m3 and 73.3402 kg/m3
380 K, 4131.9 kPa	100.514 kg/m3
380 K, 4132 kPa	100.514 kg/m3
380 K, 4132.1 kPa	100.516 kg/m3 and 100.515 kg/m3
380 K, 4703.8 kPa	148.075 kg/m3

— the NIST ThermoML archive (doi:10.1021/je900124n)
